Columns and labels:
[1] = tested on: Wnt activity (Sp5-Luc reporter, SW480 colon carcinoma cells); assay: Sp5-Luc Wnt reporter gene assay in SW480 colon carcinoma cells; type: cell-based; conditions: Homo sapiens; SW480 cells stably expressing Sp5-Luc reporter; 42 h incubation; BrightGlo luminescence normalized to DMSO
Source text: The screening assay for Wnt activity is described as follows. Reporter cell lines can be generated by stably transducing cancer cell lines (e.g., colon cancer) or primary cells (e.g., IEC-6 intestinal cells) with a lentiviral construct that includes a Wnt-responsive promoter driving expression of the firefly luciferase gene.
SW480 colon carcinoma cells were transduced with a lentiviral vector expressing luciferase with a human Sp5 promoter consisting of a sequence of eight TCF/LEF binding sites. SW480 cells stably expressing the Sp5-Luc reporter gene and a hygromycin resistance gene were selected by treatment with 150 μg/ml of hygromycin for 7 days. These stably transduced SW480 cells were expanded in cell culture and used for all further screening activities. For Sp5-Luc reporter gene assays, the cells were plated at 10,000 cells/well in 96-well plates with growth medium containing 10% fetal calf serum and incubated overnight at 37° C. and 5% CO2. Each compound was dissolved in DMSO as a 10 mM stock in standard j-vials and used to prepare compound source plates in dose-response format with 3-fold serial dilutions and a 10 mM top concentration. Compound transfer from serially diluted source plates to assay plates containing the cells was accomplished using a pintool (Multimek 96, Beckman equipped with V&P Scientific FP1S50H pins) based liquid handling protocol. This protocol used a slotted pin to transfer 50 nl of compound from a source plate well to an assay plate well containing 50 μl of cells in growth medium. […] Control wells received 50 nl of DMSO treatment for normalization and calculating IC50 values. The treated cells were incubated at 37° C. and 5% CO2 for an additional forty-two hours. Following incubation, the growth medium was removed and 50 μl of BrightGlo luminescence reagent (Promega) was added to each well of the 96-well assay plates. The plates were placed on an orbital shaker for 5 min and then luminescence was quantified on the Victor3 (Perkin Elmer) plate reader. Readings were normalized to DMSO only treated cells, and normalized activities were utilized for IC50 calculations using the dose-response log (inhibitor) vs. response-variable slope (four parameters) nonlinear regression feature available in GraphPad Prism 5.0 or 6.0.

[2] = tested on: primary human fibroblasts derived from IPF patients (LL29 cells); assay: Inhibition of TGF-β1-induced fibrosis (αSMA staining) in primary human fibroblasts from IPF patients; type: cell-based; conditions: Fibroblast, 96 h, TGF-β1 20 ng/mL, 4 days, 11-point dose-response 10 μM to 1.87 nM
Source text: The above synthesized compounds were screened using primary human fibroblasts (derived from IPF patients) treated with TGF-β1 to determine their ability to inhibit the fibrotic process.
Primary human fibroblasts derived from IPF patients (LL29 cells) [^1Xiaoqiu Liu, et. al., “Fibrotic Lung Fibroblasts Show Blunted Inhibition by cAMP Due to Deficient cAMP Response Element-Binding Protein Phosphorylation”, Journal of Pharmacology and Experimental Therapeutics (2005), 315(2), 678-687; ^2Watts, K. L., et. al., “RhoA signaling modulates cyclin D1 expression in human lung fibroblasts; implications for idiopathic pulmonary fibrosis”, Respiratory Research (2006), 7(1), 88] were obtained from American Type Culture Collection (ATCC) and expanded in F12 medium supplemented with 15% Fetal Bovine Serum and Penicillin/Streptomycin.
Each compound was dissolved in DMSO as a 10 mM stock and used to prepare compound source plates. Serial dilution (1:2, 11-point dose-response curves from 10 μM to 1.87 nM) and compound transfer was performed using the ECHO 550 (Labcyte, Sunnyvale, Calif.) into 384-well clear bottom assay plates (Greiner Bio-One) with appropriate DMSO backfill for a final DMSO concentration of 0.1%. LL29 cells were plated at 1,500 cells/well in 80 μl/well F12 medium supplemented with 1% Fetal Bovine Serum. One hour after addition of the cells, TGF-β1 (Peprotech; 20 ng/mL) was added to the plates to induce fibrosis (ref. 1 and 2 above). Wells treated with TGF-β1 and containing DMSO were used as controls. Cells were incubated at 37° C. and 5% CO2 for 4 days. Following incubation for 4 days, SYTOX green nucleic acid stain (Life Technologies [Thermo Fisher Scientific]) was added to the wells at a final concentration of 1 uM and incubated at room temperature for 30 min. Cells were then fixed using 4% formaldehyde (Electron Microscopy Sciences), washed 3 times with PBS followed by blocking and permeabilization using 3% Bovine Serum Albumin (BSA; Sigma) and 0.3% Triton X-100 (Sigma) in PBS. Cells were then stained with antibody specific to α-smooth muscle actin (αSMA; Abcam) (ref 1 and 2 above) in 3% Bovine Serum Albumin (BSA; Sigma) and 0.3% Triton X-100 (Sigma) in PBS, and incubated overnight at 4° C. Cells were then washed 3 times with PBS, followed by incubation with Alexa Flor-647 conjugated secondary antibody (Life Technologies [Thermo Fisher Scientific]) and DAPI at room temperature for 1 hour. Cells were then washed 3 times with PBS and plates were sealed for imaging. αSMA staining was imaged by excitation at 630 nm and emission at 665 nm and quantified using the Compartmental Analysis program on the CellInsight CX5 (Thermo Scientific). Dead or apoptotic cells were excluded from analysis based on positive SYTOX green staining. % of total cells positive for αSMA were counted in each well and normalized to the average of 11 wells treated with TGF-β1 on the same plate using Dotmatics' Studies Software. The normalized averages (fold change over untreated) of 3 replicate wells for each compound concentration were used to create dose-responses curves and EC50 values were calculated using non-linear regression curve fit in the Dotmatics' Studies Software. The EC50 values are reported.

Structure (SMILES): O=C(Nc1cncc(-c2cnc3[nH]nc(-c4nc5c(-c6cccc(F)c6)nccc5[nH]4)c3c2)c1)C1CC1 [Compound 19, N-(5-(3-(4-(3-Fluorophenyl)-1H-imidazo[4,5-c]pyridin-2-yl)-1H-pyrazolo[3,4-b]pyridin-5-yl)pyridin-3-yl)cyclopropanecarboxamide]
- IC50 [1]: 0.005 µM
- EC50 [2]: 0.027 µM

Structure (SMILES): CC(C)CC(=O)Nc1cncc(-c2cnc3[nH]nc(-c4nc5c(-c6ccc(F)s6)nccc5[nH]4)c3c2)c1 [Compound 314, N-(5-(3-(4-(5-Fluorothiophen-2-yl)-1H-imidazo[4,5-c]pyridin-2-yl)-1H-pyrazolo[3,4-b]pyridin-5-yl)pyridin-3-yl)-3-methylbutanamide]
- IC50 [1]: 0.0063 µM
- EC50 [2]: 0.009 µM

Structure (SMILES): FC1(F)CCN(Cc2cncc(-c3cnc4[nH]nc(-c5nc6c(N7CCCCC7)nccc6[nH]5)c4c3)c2)C1 [Compound 181, 5-(5-((3,3-Difluoropyrrolidin-1-yl)methyl)pyridin-3-yl)-3-(4-(piperidin-1-yl)-1H-imidazo[4,5-c]pyridin-2-yl)-1H-pyrazolo[3,4-b]pyridine]
- IC50 [1]: 0.243 µM
- EC50 [2]: 1.13 µM

Structure (SMILES): COc1cncc(-c2cnc3[nH]nc(-c4nc5c(-c6cccc(F)c6)nccc5[nH]4)c3c2)c1 [Compound 896, 3-(4-(3-Fluorophenyl)-1H-imidazo[4,5-c]pyridin-2-yl)-5-(5-methoxypyridin-3-yl)-1H-pyrazolo[3,4-b]pyridine]
- IC50 [1]: 0.037 µM
- EC50 [2]: 0.108 µM

Structure (SMILES): CN1CCN(c2nccc3[nH]c(-c4n[nH]c5ncc(-c6cncc(CN7CCCCC7)c6)cc45)nc23)CC1 [Compound 223, 3-(4-(4-Methylpiperazin-1-yl)-1H-imidazo[4,5-c]pyridin-2-yl)-5-(5-(piperidin-1-ylmethyl)pyridin-3-yl)-1H-pyrazolo[3,4-b]pyridine]
- IC50 [1]: > 10 µM
- EC50 [2]: ≥ 9.99 µM

Structure (SMILES): CN(C)Cc1cncc(-c2cnc3[nH]nc(-c4nc5c(-c6cccs6)nccc5[nH]4)c3c2)c1 [Compound 299, N,N-Dimethyl-1-(5-(3-(4-(thiophen-2-yl)-1H-imidazo[4,5-c]pyridin-2-yl)-1H-pyrazolo[3,4-b]pyridin-5-yl)pyridin-3-yl)methanamine]
- IC50 [1]: 1.44 µM
- EC50 [2]: ≥ 9.99 µM

Structure (SMILES): CN1CCN(c2nccc3[nH]c(-c4n[nH]c5ncc(-c6cncc(N)c6)cc45)nc23)CC1 [Compound 211, 5-(3-(4-(4-Methylpiperazin-1-yl)-1H-imidazo[4,5-c]pyridin-2-yl)-1H-pyrazolo[3,4-b]pyridin-5-yl)pyridin-3-amine]
- IC50 [1]: 0.334 µM
- EC50 [2]: ≥ 9.99 µM

Structure (SMILES): c1cc2[nH]c(-c3n[nH]c4ncc(-c5cncc(CNCC6CCCC6)c5)cc34)nc2c(-c2ccoc2)n1 [Compound 284, 1-Cyclopentyl-N-((5-(3-(4-(furan-3-yl)-1H-imidazo[4,5-c]pyridin-2-yl)-1H-pyrazolo[3,4-b]pyridin-5-yl)pyridin-3-yl)methyl)methanamine]
- IC50 [1]: 0.875 µM
- EC50 [2]: 1.18 µM

Structure (SMILES): CCC(=O)Nc1cncc(-c2cnc3[nH]nc(-c4nc5c(-c6cccs6)nccc5[nH]4)c3c2)c1 [Compound 287, N-(5-(3-(4-(Thiophen-2-yl)-1H-imidazo[4,5-c]pyridin-2-yl)-1H-pyrazolo[3,4-b]pyridin-5-yl)pyridin-3-yl)propionamide]
- IC50 [1]: 0.0229 µM
- EC50 [2]: 0.578 µM

Structure (SMILES): CN(C)c1cncc(-c2cnc3[nH]nc(-c4nc5c(-c6cccs6)nccc5[nH]4)c3c2)c1 [Compound 293, N,N-Dimethyl-5-(3-(4-(thiophen-2-yl)-1H-imidazo[4,5-c]pyridin-2-yl)-1H-pyrazolo[3,4-b]pyridin-5-yl)pyridin-3-amine]
- IC50 [1]: 0.0371 µM
- EC50 [2]: 0.009 µM

Structure (SMILES): Fc1cccc(-c2nccc3[nH]c(-c4n[nH]c5ncc(-c6ccncc6)cc45)nc23)c1 [Compound 900, 3-(4-(3-Fluorophenyl)-1H-imidazo[4,5-c]pyridin-2-yl)-5-(pyridin-4-yl)-1H-pyrazolo[3,4-b]pyridine]
- IC50 [1]: > 10 µM
- EC50 [2]: 0.009 µM

Structure (SMILES): CN(C)c1cncc(-c2cnc3[nH]nc(-c4nc5c(-c6cccc(F)c6)nccc5[nH]4)c3c2)c1 [Compound 7, 5-(3-(4-(3-Fluorophenyl)-1H-imidazo[4,5-c]pyridin-2-yl)-1H-pyrazolo[3,4-b]pyridin-5-yl)-N,N-dimethylpyridin-3-amine]
- IC50 [1]: 0.0353 µM
- EC50 [2]: 0.365 µM

Structure (SMILES): O=C(Nc1cncc(-c2cnc3[nH]nc(-c4nc5c(-c6ccsc6)nccc5[nH]4)c3c2)c1)c1ccccc1 [Compound 245, N-(5-(3-(4-(Thiophen-3-yl)-1H-imidazo[4,5-c]pyridin-2-yl)-1H-pyrazolo[3,4-b]pyridin-5-yl)pyridin-3-yl)benzamide]
- IC50 [1]: 0.102 µM
- EC50 [2]: 0.28 µM

Structure (SMILES): CN(C)CC(=O)Nc1cncc(-c2cnc3[nH]nc(-c4nc5c(-c6cccc(F)c6)nccc5[nH]4)c3c2)c1 [Compound 1367, 2-(Dimethylamino)-N-(5-(3-(4-(3-fluorophenyl)-1H-imidazo[4,5-c]pyridin-2-yl)-1H-pyrazolo[3,4-b]pyridin-5-yl)pyridin-3-yl)acetamide]
- IC50 [1]: 0.183 µM
- EC50 [2]: 0.186 µM

Structure (SMILES): CC(=O)c1ccc(-c2nccc3[nH]c(-c4n[nH]c5ncc(-c6cncc(NC(=O)C7CCCCC7)c6)cc45)nc23)s1 [Compound 386, N-(5-(3-(4-(5-Acetylthiophen-2-yl)-1H-imidazo[4,5-c]pyridin-2-yl)-1H-pyrazolo[3,4-b]pyridin-5-yl)pyridin-3-yl)cyclohexanecarboxamide]
- IC50 [1]: 0.188 µM
- EC50 [2]: 0.053 µM

Structure (SMILES): CC(C)CC(=O)Nc1cncc(-c2cnc3[nH]nc(-c4nc5c(-c6ccc(F)cc6)nccc5[nH]4)c3c2)c1 [Compound 28, N-(5-(3-(4-(4-Fluorophenyl)-1H-imidazo[4,5-c]pyridin-2-yl)-1H-pyrazolo[3,4-b]pyridin-5-yl)pyridin-3-yl)-3-methylbutanamide]
- IC50 [1]: 0.0377 µM
- EC50 [2]: 0.881 µM

Structure (SMILES): Cc1ccncc1-c1cnc2[nH]nc(-c3nc4c(-c5ccncc5)nccc4[nH]3)c2c1 [Compound 109, 5-(4-Methylpyridin-3-yl)-3-(4-(pyridin-4-yl)-1H-imidazo[4,5-c]pyridin-2-yl)-1H-pyrazolo[3,4-b]pyridine]
- IC50 [1]: > 10 µM
- EC50 [2]: ≥ 9.99 µM

Structure (SMILES): Fc1cccc(-c2nccc3[nH]c(-c4n[nH]c5ncc(C6CCNCC6)cc45)nc23)c1 [Compound 885, 3-(4-(3-Fluorophenyl)-1H-imidazo[4,5-c]pyridin-2-yl)-5-(piperidin-4-yl)-1H-pyrazolo[3,4-b]pyridine]
- IC50 [1]: 3.87 µM
- EC50 [2]: 0.009 µM

Source: patent US9493487B2, “3-(1H-imidazo[4,5-C]pyridin-2-YL)-1H-pyrazolo[3,4-B]pyridine and therapeutic uses thereof” (Samumed, LLC, priority 2014, dated 2016)
